# Molecular target: T1, PHD2 (Homo sapiens, UniProt Q9GZT9)
# T1 construct: made in house; host or cells: Sf9 insect cells (baculovirus, pBacPAC transfer vectors)
# Experiment: Prolyl hydroxylase assay (Eu-VBC binding to hydroxylated HIF-1α 556–574 peptide)
# Assay type: biochemical
# Protocol: DELFIA labeling reagent (PerkinElmer) was used to label purified VBC complex with europium according to the manufacturer’s instructions.
# The prolyl hydroxylase assay was performed as described previously [32] with minor modifications. […] The immobilized peptide substrate was incubated with the appropriate amount of HIF-PH in buffer containing 20 mM Tris (pH 7.5), 5 mM KCl, 1.5 mM MgCl2, 20 µM 2-oxoglutarate, 10 µM FeSO4, 2 mM ascorbate, 4% protease inhibitors without EDTA (Roche Diagnostics) in a final volume of 100 µl, with or without test compound added at appropriate concentrations. The reaction time was 60 min. To stop the reaction, plates were washed three times with wash buffer.
# Hydroxylated biotinyl-HIF-1α 556–574 was incubated with Eu-VBC in 100 µl binding buffer (50 mM Tris [pH 7.5], 120 mM NaCl) for 60 min at room temperature. After washing six times with DELFIA wash buffer (PerkinElmer) and adding 100 µl enhancer solution (PerkinElmer), the amount of bound VBC was determined by measuring time-resolved fluorescence with a Tecan infinite M200 plate reader. Measurements were taken in triplicate or more, and results were expressed as means ± SEM. IC50 values were determined after curve fitting using GraphPad Prism software (GraphPad Software, La Jolla, CA, USA) applying the four-parameter logistic equation to the data sets.
# To measure the activity of HIF-PH inhibitors quantitatively, a microplate assay was developed that employed the interaction of the VBC complex with the peptide HIF-1α 556–574 after being hydroxylated at proline 564 by recombinant HIF-PH. Activity of the recombinant enzyme was dependent on the concentrations of several cofactors, 2-oxoglutarate, Fe^2+, and ascorbate, in the reaction mixture.
# T1 sequence (Q9GZT9 whole entry): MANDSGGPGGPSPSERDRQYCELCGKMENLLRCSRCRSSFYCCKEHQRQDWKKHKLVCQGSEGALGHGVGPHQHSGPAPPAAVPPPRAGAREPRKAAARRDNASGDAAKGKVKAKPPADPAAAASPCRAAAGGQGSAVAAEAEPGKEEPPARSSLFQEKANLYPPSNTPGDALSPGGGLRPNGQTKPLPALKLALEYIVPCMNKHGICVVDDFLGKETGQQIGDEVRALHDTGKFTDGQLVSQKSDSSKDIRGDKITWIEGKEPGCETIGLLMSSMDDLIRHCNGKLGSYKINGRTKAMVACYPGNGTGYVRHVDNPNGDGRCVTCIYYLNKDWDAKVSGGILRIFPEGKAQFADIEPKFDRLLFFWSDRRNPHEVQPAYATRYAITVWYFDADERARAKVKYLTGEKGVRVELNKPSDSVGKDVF
smiles,measurement,setting,value
"O=c1c(-n2ccnn2)c[nH]n1-c1cc(N2CCOCC2)ncn1 [BAY 85-3934, 2-[6-(morpholin-4-yl)pyrimidin-4-yl]-4-(1H-1,2,3-triazol-1-yl)-1,2-dihydro-3H-pyrazol-3-one]",IC50,"20 µM 2-oxoglutarate, 10 µM Fe2+, 2 mM ascorbate",0.28 µM
same,increase of potency on lowering 2-oxoglutarate,2-oxoglutarate lowered from 20 µM to 0.3 µM (Fig. 1A),up to 10 fold
same,alteration of potency on varying Fe2+ and ascorbate,"Fe2+ and ascorbate varied by factors of 30 and 200 (Fig. 1B, C)",≤ 2 fold
